According to PMC9558053, “Development of a novel high-throughput screen for the identification of new inhibitors of protein S-acylation” (The Journal of Biological Chemistry, 2022):

System: endogenous calnexin S-acylation in HEK293T cells
Assay: mPEG-click S-acylation of endogenous calnexin in HEK293T cells
Format: cell-based, human
Settings: 25 and 50 μM, 4 h pretreatment + 4 h labeling
From the text: Finally, we tested whether TTZ-1 and TTZ-2 were able to block the S-acylation of endogenous proteins in the absence of zDHHC enzyme overexpression. In order to detect the S-acylation of endogenous proteins, we used mPEG-click, a technique that we developed recently ([49]) that is better suited for the click chemistry–based analysis of S-acylation of endogenously expressed proteins. In this assay, cells are labeled with either palmitate (C16:0), or C16:0-azide, lysed, and then subjected to click chemistry with alkyne-mPEG 5K. The addition of mPEG 5K moieties to S-acylated proteins increases their apparent molecular weight, which can be detected directly by immunoblotting. HEK293T cells were pretreated for 4 h with either TTZ-1 or TTZ-2 at 25 and 50 μM and then labeled with fatty acids for another 4 h in the presence of the compounds. We first assessed the S-acylation of endogenous SNAP23 as it is a close relative of SNAP25 (SNAP25 is not expressed in the non-neuronal HEK293T cell line) ([50], [51]). […]
Figure 10 Activity of TTZ-1 and TTZ-2 against the S-acylation of endogenous proteins in mammalian cells. […] The data were quantified, and the graphs below each set of membranes show mean ± SEM of normalized S-acylation of either endogenous SNAP23 (A) or endogenous calnexin (B). […]

Row | Structure (SMILES) | S-acylation of endogenous calnexin
1 | CCCCCCCOc1ccc(C(=O)Nc2cccc3c2OC(c2nnn[nH]2)CN3)cc1 (centres unmarked) [TTZ-1, N-(2-(1H-Tetrazol-5-yl)-3,4-dihydro-2H-benzo[b][1,4]oxazin-8-yl)-4-(heptyloxy)benzamide] | decreased
2 | O=C(Nc1cccc2c1OC(c1nnn[nH]1)CN2)c1ccc(OCCCCc2ccccc2)cc1 (centres unmarked) [TTZ-2, N-(2-(1H-Tetrazol-5-yl)-3,4-dihydro-2H-benzo[b][1,4]oxazin-8-yl)-4-(4-phenylbutoxy)benzamide] | decreased
